How the values were obtained:
[1] = molecular target: Cannabinoid receptor 2 (Homo sapiens, UniProt P34972); assay: CB Receptor Radioligand Binding Assay (Ki)
Procedure: IC50 values for test compounds were determined from nonlinear regression analysis of data collected from ligand displacement experiments. The inhibition constant (Ki) was calculated from IC50 value by the Cheng and Prusoff equation.

[2] = molecular target: Transient receptor potential cation channel subfamily V member 1 (Homo sapiens, UniProt Q8NER1); assay: TRPV1 Channel Activity Assay
Procedure: The effect of the substances on Ca2+ influx was determined by using HEK-293 cells stably overexpressing recombinant human TRPV1 cDNA. The cells were loaded with Fluo-4, a selective intracellular fluorescent probe for Ca2+. Experiments were carried out by measuring cell fluorescence before and after the addition of the test compounds at various concentrations. Agonist activity was determined in comparison to the maximum Ca2+ influx due to the application of 4 uM ionomycin. EC50 values were determined as the concentration of test substances required to produce half-maximal increases in [Ca2+]i. All determinations were at least performed in triplicate. Curve fitting (sigmoidal dose-response variable slope) and parameter estimation were performed with GraphPad Prism (GraphPad Software Inc., San Diego, CA).

Sequence of Transient receptor potential cation channel subfamily V member 1 (Q8NER1 whole entry): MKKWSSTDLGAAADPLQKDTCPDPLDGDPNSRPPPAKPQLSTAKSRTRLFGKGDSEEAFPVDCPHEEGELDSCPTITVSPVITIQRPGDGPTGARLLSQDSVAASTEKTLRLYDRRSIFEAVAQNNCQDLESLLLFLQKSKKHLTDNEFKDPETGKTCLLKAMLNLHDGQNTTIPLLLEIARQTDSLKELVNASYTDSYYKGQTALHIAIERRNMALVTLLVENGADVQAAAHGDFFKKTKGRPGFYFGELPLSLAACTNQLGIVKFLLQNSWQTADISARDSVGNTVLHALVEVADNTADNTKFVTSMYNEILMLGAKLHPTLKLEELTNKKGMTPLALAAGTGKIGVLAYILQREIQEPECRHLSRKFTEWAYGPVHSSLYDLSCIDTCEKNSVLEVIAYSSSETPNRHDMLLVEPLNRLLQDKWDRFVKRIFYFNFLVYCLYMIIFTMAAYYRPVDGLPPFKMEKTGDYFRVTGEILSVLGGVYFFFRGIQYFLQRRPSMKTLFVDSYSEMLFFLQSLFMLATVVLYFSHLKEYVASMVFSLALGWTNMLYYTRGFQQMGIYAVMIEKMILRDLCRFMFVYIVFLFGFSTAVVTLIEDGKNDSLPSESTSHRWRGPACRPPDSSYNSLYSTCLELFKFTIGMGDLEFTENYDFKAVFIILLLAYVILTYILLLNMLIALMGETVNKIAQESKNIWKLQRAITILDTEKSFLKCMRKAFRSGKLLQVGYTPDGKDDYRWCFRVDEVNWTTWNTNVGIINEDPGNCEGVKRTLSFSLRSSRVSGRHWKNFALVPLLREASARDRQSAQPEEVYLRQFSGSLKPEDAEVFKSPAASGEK
Sequence of Cannabinoid receptor 2 (P34972 whole entry): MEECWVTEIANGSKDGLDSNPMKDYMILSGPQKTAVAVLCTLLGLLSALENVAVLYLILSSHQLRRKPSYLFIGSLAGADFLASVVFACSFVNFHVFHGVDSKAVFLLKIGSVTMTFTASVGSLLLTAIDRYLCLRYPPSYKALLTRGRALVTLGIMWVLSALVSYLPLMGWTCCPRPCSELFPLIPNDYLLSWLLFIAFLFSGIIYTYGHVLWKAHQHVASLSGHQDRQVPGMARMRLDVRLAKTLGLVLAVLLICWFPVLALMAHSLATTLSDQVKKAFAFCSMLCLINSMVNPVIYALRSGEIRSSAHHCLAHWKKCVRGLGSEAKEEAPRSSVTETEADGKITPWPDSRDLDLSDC

Compound	Ki [1] [nM]	EC50 [2] [nM]
CCCCCCCC/C=C\CCCCCCCC(=O)N[C@H]1C[C@@H]1O [cyclopropanolamide, 11b]	2420	19
CCCCCCCC/C=C\CCCCCCCC(=O)N[C@H]1C[C@H]1O [cyclopropanolamide, 14b]	1630	180

— BindingDB's records for doi:10.1021/jm900130m (Universita Del Piemonte Orientale, 2009)
